Where a name gives a salt, the structure may show the parent alone.
Tests used:
Type in all cases: cell-based, human
cancer cell lines = test: Cell viability analysis (WST-1) on cancer cell lines; conditions: drug 10 μM, 72 hours; for inhibition effect on different cancer cell lines: WST-1, Table 3
[1] = system: A375 (Amelanotic Melanoma); test: Cell viability analysis, skin cancer A375; conditions: Homo sapiens, A-375, 72 h, read-out: cell viability (survival rate), A375, drug 10 μM, 72 hours, WST-1, OD450 nm
[2] = system: HepG2 (Hepatocellular Carcinoma); test: Cell viability analysis, hepatic cancer HepG2; conditions: Homo sapiens, HepG2, 72 h, read-out: cell viability (survival rate), HepG2, drug 10 μM, 72 hours, WST-1, OD450 nm
[3] = system: LoVo (Colorectal Adenocarcinoma); test: Cell viability analysis, colon cancer LoVo; conditions: Homo sapiens, LoVo, 72 h, read-out: cell viability (survival rate), LoVo, drug 10 μM, 72 hours, WST-1, OD450 nm
[4] = system: TSGH-8301 (Urinary Bladder Carcinoma); test: Cell viability analysis, bladder cancer TSGH-8301; conditions: Homo sapiens, 72 h, read-out: cell viability (survival rate), TSGH, drug 10 μM, 72 hours, WST-1, OD450 nm
[5] = system: PC3 (p53−) (Prostate Adenocarcinoma); test: Cell viability analysis, prostate cancer PC3; conditions: Homo sapiens, 72 h, read-out: cell viability (survival rate), PC3, drug 10 μM, 72 hours, WST-1, OD450 nm
[6] = system: HeLa (Cervix Adenocarcinoma); test: Cell viability analysis, cervical cancer HeLa; conditions: Homo sapiens, HeLa, 72 h, read-out: cell viability (survival rate), HeLa, drug 10 μM, 72 hours, WST-1, OD450 nm
[7] = system: AGS (Gastric Adenocarcinoma); test: Cell viability analysis, gastric cancer AGS; conditions: Homo sapiens, 72 h, read-out: cell viability (survival rate), AGS, drug 10 μM, 72 hours, WST-1, OD450 nm
[8] = system: HL-60 (Acute Promyelocytic Leukemia); test: Cell viability analysis, leukemia HL-60; conditions: Homo sapiens, HL-60, 72 h, read-out: cell viability (survival rate), HL-60, drug 10 μM, 72 hours, WST-1, OD450 nm
[9] = system: HI650 (Lung Adenocarcinoma); test: Cell viability analysis, lung cancer HI650; conditions: Homo sapiens, NCI-H1650, 72 h, read-out: cell viability (survival rate), H1650, drug 10 μM, 72 hours, WST-1, OD450 nm
[10] = system: A549 (Lung Adenocarcinoma); test: Cell viability analysis, lung cancer A549; conditions: Homo sapiens, A549, 72 h, read-out: cell viability (survival rate), A549, drug 10 μM, 72 hours, WST-1, OD450 nm
[11] = system: MKN-45 (Gastric Adenocarcinoma); test: Cell viability analysis, gastric cancer MKN-45; conditions: Homo sapiens, MKN-45, 72 h, read-out: cell viability (survival rate), MKN-45, drug 10 μM, 72 hours, WST-1, OD450 nm
[12] = system: MCF7 (Mammary Gland, Adenocarcinoma); test: Cell viability analysis, breast cancer MCF7; conditions: Homo sapiens, MCF7, 72 h, read-out: cell viability (survival rate), MCF7, drug 10 μM, 72 hours, WST-1, OD450 nm

Question: For NCC[C@H](O)C(=O)N[C@@H]1C[C@H](N)[C@@H](O[C@H]2O[C@H](CN)[C@@H](O)[C@H](O)[C@H]2O)[C@H](O)[C@H]1O[C@H]1O[C@H](CO)[C@@H](O)[C@H](N)[C@H]1O.O=S(=O)(O)O.O=S(=O)(O)O [Amikacin sulfate], which “inhibition effect on different cancer cell lines” value (cancer cell lines) is on record?
Answer: significant inhibition effect

Question: With CO/N=C(\C(=O)N[C@@H]1C(=O)N2C(C(=O)O)=C(Cn3ccc(=N)n3CCO)CS[C@H]12)c1csc(N)n1.O=S(=O)(O)O [Cefoselis sulfate] as the compound, how does the “Inhibitory effect on cancer cell line” value (cancer cell lines; WST-1, OD450 nm, Table 2: drugs which do not have significant inhibitory effect) read?
Answer: 0

Question: What about the “inhibition effect on different cancer cell lines” value (cancer cell lines) of the same compound?
Answer: significant inhibition effect

Question: Which “inhibition effect on different cancer cell lines” value (cancer cell lines) does the source give for Cl.NC1CCN(c2c(F)cc3c(=O)c(C(=O)O)cn(C4CC4)c3c2Cl)C1 (centres unmarked) [Clinafoxacin HCl] here?
Answer: significant inhibition effect

Question: With CCCCCCCCCCCCCCCC(=O)O[C@@H]1[C@@H](O)[C@@H](O)[C@@H]([C@H](NC(=O)[C@@H]2C[C@@H](CCC)CN2C)[C@H](C)Cl)O[C@@H]1SC.Cl [Clindamycin palmitate HCl] as the compound, how does the “inhibition effect on different cancer cell lines” value (cancer cell lines) read?
Answer: significant inhibition effect

Question: Which “inhibition effect on different cancer cell lines” value (cancer cell lines) does the source give for N[C@@H]1CONC1=O [D-Cycloserine] here?
Answer: significant inhibition effect

Question: How did the “inhibition effect on different cancer cell lines” value (cancer cell lines) turn out when CC(C)CN(C[C@@H](O)[C@H](Cc1ccccc1)NC(=O)O[C@H]1CO[C@H]2OCC[C@H]21)S(=O)(=O)c1ccc(N)cc1.CCO [Darunavir Ethanolate (Prezista), Darunavir Ethanolate] was run?
Answer: significant inhibition effect

Question: For C[C@H]1COc2c(N3CCN(C)CC3)c(F)cc3c(=O)c(C(=O)O)cn1c23 [Levofloxacin (Levaquin), Levofloxacin], which viability at 10 µM [1] is on record?
Answer: 39.3%

Question: What about the viability at 10 µM [2] of the same compound?
Answer: 88.4%

Question: And the viability at 10 µM [3]?
Answer: 62.6%

Question: What about the viability at 10 µM [4] of the same compound?
Answer: 41.8%

Question: What about the viability at 10 µM [5] of the same compound?
Answer: 29.6%

Question: What about the viability at 10 µM [6] of the same compound?
Answer: 50.8%

Question: And the viability at 10 µM [7]?
Answer: 51.6%

Question: What about the viability at 10 µM [8] of the same compound?
Answer: 93%

Question: And the viability at 10 µM [9]?
Answer: 64.9%

Question: And the viability at 10 µM [10]?
Answer: 36.7%

Question: What about the viability at 10 µM [11] of the same compound?
Answer: 44.5%

Question: And the viability at 10 µM [12]?
Answer: 43.9%

Question: CCn1cc(C(=O)O)c(=O)c2cc(F)c(N3CCNC(C)C3)c(F)c21 (centres unmarked) [Lomefloxacin hydrochloride (Maxaquin), Lomefloxacin hydrochloride] was tested. Which “inhibition effect on different cancer cell lines” value (cancer cell lines) did it give?
Answer: significant inhibition effect
